# In ChEMBL document CHEMBL1909046, “DrugMatrix in vitro pharmacology data”:
# Tests used:
# [1] = DRUGMATRIX: GABAA, Flunitrazepam, Central radioligand binding (ligand: [3H] Flunitrazepam); type: cell membranes, Rattus norvegicus, Wistar, Brain, Membrane; conditions: Not Active = under 50% inhibition at 10 µM
# [2] = target: Kappa-type opioid receptor (Homo sapiens, UniProt P41145); assay: DRUGMATRIX: Opiate kappa (OP2, KOP) radioligand binding (ligand: [3H] Diprenorphine); type: cell membranes, HEK293, Membrane; conditions: hek293; Not Active = under 50% inhibition at 10 µM
# Chain of Kappa-type opioid receptor (P41145 whole entry): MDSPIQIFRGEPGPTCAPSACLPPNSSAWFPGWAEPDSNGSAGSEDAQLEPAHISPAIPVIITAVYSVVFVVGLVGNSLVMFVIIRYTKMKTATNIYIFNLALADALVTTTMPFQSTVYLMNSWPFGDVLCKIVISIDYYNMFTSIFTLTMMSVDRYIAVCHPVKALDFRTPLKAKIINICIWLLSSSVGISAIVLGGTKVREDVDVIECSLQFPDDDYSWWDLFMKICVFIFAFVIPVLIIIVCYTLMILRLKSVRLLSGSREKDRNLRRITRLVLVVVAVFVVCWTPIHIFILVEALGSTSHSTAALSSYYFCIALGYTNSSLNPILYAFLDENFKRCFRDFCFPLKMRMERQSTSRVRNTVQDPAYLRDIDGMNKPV
# Glucocorticoid receptor = target: T1, Glucocorticoid receptor (Homo sapiens, UniProt P04150); conditions: hela s3; also: in other assays of this panel Not Active means under 50% inhibition at 10 µM
# T1 sequence (P04150 whole entry): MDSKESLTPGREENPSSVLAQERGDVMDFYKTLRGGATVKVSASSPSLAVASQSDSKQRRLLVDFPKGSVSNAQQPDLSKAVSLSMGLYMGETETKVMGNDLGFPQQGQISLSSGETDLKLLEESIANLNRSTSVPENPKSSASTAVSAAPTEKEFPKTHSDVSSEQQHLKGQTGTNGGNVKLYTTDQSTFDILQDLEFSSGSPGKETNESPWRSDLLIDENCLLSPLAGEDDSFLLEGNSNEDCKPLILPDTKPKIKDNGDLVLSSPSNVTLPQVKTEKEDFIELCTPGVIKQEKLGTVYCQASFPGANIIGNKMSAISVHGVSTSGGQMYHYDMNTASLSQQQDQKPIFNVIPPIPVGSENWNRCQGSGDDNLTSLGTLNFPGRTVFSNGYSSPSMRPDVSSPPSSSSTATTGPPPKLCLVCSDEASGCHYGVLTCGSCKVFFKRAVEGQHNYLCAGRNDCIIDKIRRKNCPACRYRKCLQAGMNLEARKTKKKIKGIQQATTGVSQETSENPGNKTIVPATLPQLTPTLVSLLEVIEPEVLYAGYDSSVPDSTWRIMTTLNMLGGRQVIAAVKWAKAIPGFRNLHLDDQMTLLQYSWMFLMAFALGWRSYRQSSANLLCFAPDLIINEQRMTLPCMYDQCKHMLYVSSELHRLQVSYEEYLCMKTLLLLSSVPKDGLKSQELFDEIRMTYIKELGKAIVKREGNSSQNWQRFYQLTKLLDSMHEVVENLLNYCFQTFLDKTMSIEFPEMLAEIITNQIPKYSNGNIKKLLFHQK
# [3] = target: Beta-3 adrenergic receptor (Homo sapiens, UniProt P13945); assay: DRUGMATRIX: Adrenergic beta3 radioligand binding (ligand: [125I] Cyanopindolol); type: cell membranes, HEK293, Membrane; conditions: Not Active = under 50% inhibition at 10 µM
# Chain of Beta-3 adrenergic receptor (P13945 whole entry): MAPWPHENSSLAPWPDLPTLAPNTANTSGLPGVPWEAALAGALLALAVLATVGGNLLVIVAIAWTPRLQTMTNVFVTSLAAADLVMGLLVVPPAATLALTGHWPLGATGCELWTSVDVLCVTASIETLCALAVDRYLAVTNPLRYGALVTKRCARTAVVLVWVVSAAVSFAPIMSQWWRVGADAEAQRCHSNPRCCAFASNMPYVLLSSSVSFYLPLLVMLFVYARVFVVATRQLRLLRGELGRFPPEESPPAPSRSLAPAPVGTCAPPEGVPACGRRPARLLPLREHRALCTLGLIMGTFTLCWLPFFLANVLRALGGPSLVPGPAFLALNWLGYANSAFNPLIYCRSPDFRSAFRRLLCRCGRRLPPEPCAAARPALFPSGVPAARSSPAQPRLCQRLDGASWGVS
# Endothelin-1 receptor = target: T2, Endothelin-1 receptor (Homo sapiens, UniProt P25101); type: cell membranes, Membrane; conditions: cho-k1; also: in other assays of this panel Not Active means under 50% inhibition at 10 µM
# T2 sequence (P25101 whole entry): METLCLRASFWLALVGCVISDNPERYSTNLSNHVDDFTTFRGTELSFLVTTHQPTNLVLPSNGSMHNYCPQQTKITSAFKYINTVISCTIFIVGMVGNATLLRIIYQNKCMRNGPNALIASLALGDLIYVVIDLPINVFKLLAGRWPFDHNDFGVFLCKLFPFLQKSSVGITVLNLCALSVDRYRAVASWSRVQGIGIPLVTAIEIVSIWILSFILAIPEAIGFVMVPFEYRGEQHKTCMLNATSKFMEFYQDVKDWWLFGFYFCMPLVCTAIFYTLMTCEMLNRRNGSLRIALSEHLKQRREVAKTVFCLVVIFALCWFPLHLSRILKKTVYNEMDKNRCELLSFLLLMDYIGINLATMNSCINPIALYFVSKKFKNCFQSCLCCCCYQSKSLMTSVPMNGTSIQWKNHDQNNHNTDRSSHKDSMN
# Neutrophil elastase = target: T3, Neutrophil elastase (Homo sapiens, UniProt P08246); type: tissue-based;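 also: inhibition of neutrophil elastase enzyme activity, measured with a p-nitroanilide-linked peptide substrate; in other assays of this panel Not Active means under 50% inhibition at 10 µM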
# T3 sequence (P08246 whole entry): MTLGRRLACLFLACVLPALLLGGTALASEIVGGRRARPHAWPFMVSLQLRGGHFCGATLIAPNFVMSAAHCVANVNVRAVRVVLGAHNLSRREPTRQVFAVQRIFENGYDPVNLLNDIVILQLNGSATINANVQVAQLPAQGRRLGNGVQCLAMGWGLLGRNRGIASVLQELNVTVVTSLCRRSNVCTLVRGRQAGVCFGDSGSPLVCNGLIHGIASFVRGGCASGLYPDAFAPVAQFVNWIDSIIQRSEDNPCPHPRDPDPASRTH
SMILES,IC50 [1],Ki [1],IC50 [2],IC50 (Glucocorticoid receptor),IC50 ([3]; hek293),IC50 (Endothelin-1 receptor),IC50 (Neutrophil elastase),IC50 ([3]; read-out: IC50) [nM],Ki ([3]; read-out: Ki) [nM],IC50 ([1]; read-out: IC50) [nM],Ki ([1]; read-out: Ki) [nM]
O=C(c1ccccc1C(F)(F)F)N1CCC(Cc2ccccc2)CC1,Not Active,Not Active,Not Active,Not Active,Not Active,Not Active,Not Active,,,,
Nc1ccc2c3c(cccc13)C(=O)NC2=O,Not Active,Not Active,Not Active,Not Active,Not Active,Not Active,Not Active,,,,
O=c1cnn([C@@H]2O[C@H](CO)[C@@H](O)[C@H]2O)c(=O)[nH]1 [6-AZAURIDINE],Not Active,Not Active,Not Active,Not Active,Not Active,Not Active,Not Active,,,,
CC[C@H](C)[C@H]1O[C@]2(C=C[C@@H]1C)C[C@@H]1C[C@@H](C/C=C(\C)[C@@H](O[C@H]3C[C@H](OC)[C@@H](O[C@H]4C[C@H](OC)[C@@H](O)[C@H](C)O4)[C@H](C)O3)[C@@H](C)/C=C/C=C3\CO[C@@H]4[C@H](O)C(C)=C[C@@H](C(=O)O1)[C@]34O)O2.CO[C@H]1C[C@H](O[C@H]2[C@H](C)O[C@@H](O[C@@H]3/C(C)=C/C[C@@H]4C[C@@H](C[C@]5(C=C[C@H](C)[C@@H](C(C)C)O5)O4)OC(=O)[C@@H]4C=C(C)[C@@H](O)[C@H]5OC/C(=C\C=C\[C@@H]3C)[C@]54O)C[C@@H]2OC)O[C@@H](C)[C@@H]1O [ABAMECTIN],Not Active,Not Active,Not Active,Not Active,Not Active,Not Active,Not Active,,,,
NCCCC(O)(P(=O)(O)O)P(=O)(O)O [ALENDRONIC ACID],Not Active,Not Active,Not Active,Not Active,Not Active,Not Active,Not Active,,,,
CC1(C)S[C@@H]2[C@H](NC(=O)[C@H](N)c3ccccc3)C(=O)N2[C@H]1C(=O)O [AMPICILLIN],Not Active,Not Active,Not Active,Not Active,Not Active,Not Active,Not Active,,,,
COc1ccc(C2C(=O)c3ccccc3C2=O)cc1 [ANISINDIONE],Not Active,Not Active,Not Active,Not Active,Not Active,Not Active,Not Active,,,,
O=C1O[C@H]([C@@H](O)CO)C(O)=C1O [ASCORBIC ACID],Not Active,Not Active,Not Active,Not Active,Not Active,Not Active,Not Active,,,,
CN1[C@@H]2CC[C@H]1C[C@@H](OC(=O)C(CO)c1ccccc1)C2 (stereo partly specified) [ATROPINE],Not Active,Not Active,Not Active,Not Active,Not Active,Not Active,Not Active,,,,
CC(C(=O)O)c1ccc2oc(-c3ccc(Cl)cc3)nc2c1 (stereo unspecified) [BENOXAPROFEN],Not Active,Not Active,Not Active,Not Active,Not Active,Not Active,Not Active,,,,
COc1ccc2cc3[n+](cc2c1OC)CCc1cc2c(cc1-3)OCO2.[Cl-] [BERBERINE CHLORIDE],Not Active,Not Active,Not Active,Not Active,Not Active,Not Active,Not Active,,,,
O=C(O)CCNC(=O)c1ccccc1 [BETAMIPRON],Not Active,Not Active,Not Active,Not Active,Not Active,Not Active,Not Active,,,,
Cc1cc2c(OCC(CNC(C)(C)C)OC(=O)c3ccccc3)cccc2[nH]1 (stereo unspecified) [BOPINDOLOL],Not Active,Not Active,Not Active,Not Active,,Not Active,Not Active,458,344,,
Brc1c(NC2=NCCN2)ccc2nccnc12 [BRIMONIDINE],Not Active,Not Active,Not Active,Not Active,Not Active,Not Active,Not Active,,,,
CN(C)[C@@H]1C(O)=C(C(N)=O)C(=O)[C@@]2(O)C(O)=C3C(=O)c4c(O)ccc(Cl)c4[C@@](C)(O)[C@H]3C[C@@H]12 [CHLORTETRACYCLINE],Not Active,Not Active,Not Active,Not Active,Not Active,Not Active,Not Active,,,,
COc1cc(N)c(Cl)cc1C(=O)NC1CCN(CCCOc2ccc(F)cc2)CC1OC (stereo unspecified) [CISAPRIDE],Not Active,Not Active,Not Active,Not Active,Not Active,Not Active,Not Active,,,,
O=C1CN=C(c2ccccc2Cl)c2cc([N+](=O)[O-])ccc2N1 [CLONAZEPAM],,,Not Active,Not Active,Not Active,Not Active,Not Active,,,4.93,4.02
Nc1ccn([C@@H]2O[C@H](CO)[C@@H](O)[C@@H]2O)c(=O)n1 [CYTARABINE],Not Active,Not Active,Not Active,Not Active,Not Active,Not Active,Not Active,,,,
CN(C)CC[C@@H](c1ccc(Cl)cc1)c1ccccn1 [DEXCHLORPHENIRAMINE],Not Active,Not Active,Not Active,Not Active,Not Active,Not Active,Not Active,,,,
C[C@@H]1CC[C@@]2(OC1)O[C@H]1[C@@H](O)[C@H]3[C@@H]4CC[C@H]5C[C@@H](O[C@@H]6O[C@H](CO)[C@H](O[C@@H]7O[C@H](CO)C(O)[C@H](O[C@@H]8OC[C@@H](O)[C@H](O)[C@H]8O)[C@H]7O[C@@H]7O[C@H](CO)[C@H](O)[C@H](O[C@@H]8O[C@H](CO)[C@@H](O)[C@H](O)[C@H]8O)[C@H]7O)[C@H](O)[C@H]6O)[C@H](O)C[C@]5(C)[C@H]4CC[C@]3(C)[C@H]1[C@@H]2C (stereo partly specified) [DIGITONIN],Not Active,Not Active,Not Active,Not Active,Not Active,Not Active,Not Active,,,,
C[C@H]1O[C@@H](n2cc(F)c(=O)[nH]c2=O)[C@H](O)[C@@H]1O [DOXIFLURIDINE],Not Active,Not Active,Not Active,Not Active,Not Active,Not Active,Not Active,,,,
Cn1c(=O)c2c(ncn2CC(O)CO)n(C)c1=O (stereo unspecified) [DYPHYLLINE],Not Active,Not Active,Not Active,Not Active,Not Active,Not Active,Not Active,,,,
CC[C@H]1CN2CCc3cc(OC)c(OC)cc3[C@@H]2C[C@@H]1C[C@H]1NCCc2cc(OC)c(OC)cc21 [EMETINE],Not Active,Not Active,Not Active,Not Active,Not Active,Not Active,Not Active,,,,
COC(=O)CCc1ccc(OCC(O)CNC(C)C)cc1 (stereo unspecified) [ESMOLOL],Not Active,Not Active,Not Active,Not Active,Not Active,Not Active,Not Active,,,,
CCC1(C)CC(=O)NC1=O (stereo unspecified) [ETHOSUXIMIDE],Not Active,Not Active,Not Active,Not Active,Not Active,Not Active,Not Active,,,,
